Data reported in patent publication US9630958B2, “Triazine compounds” (Sphaera Pharma Pte. Ltd., priority 2012, dated 2017).

Key:
[1] = molecular target: T1, PI3 Kinase alpha (p110 alpha/p85 alpha) (Homo sapiens, UniProt P42336); experiment: PI3K TR-FRET assay (Transcreener ADP2); format: biochemical; conditions: for inhibition at 1 µM: 1 uM compound, read-out: PI3K % Inhib@1 uM; for IC50: PI3K alpha, 1 μM ATP, 50 μM PIP2
T1 construct: purchased Invitrogen
Method in brief: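 p110α/p85α with diC8 PIP2 (50 μM) and 1 μM ATP in 50 mM HEPES pH 7.4, MgCl2, CHAPS, DTT, EGTA; 1 h at room temperature. ADP detected by Transcreener ADP2 TR-FRET (665/615 nm ratio), converted to product via ADP-ATP standard curve; IC50 from four-parameter fit of % inhibition.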

Recombinant mTOR (FRAP1) = molecular target: T2, Recombinant mTOR (FRAP1) (Homo sapiens, UniProt P42345); experiment: mTOR in vitro kinase assay (TR-FRET, phosphorylation of GFP-4E-BP1); format: biochemical; conditions: for IC50: 8 μM ATP, 400 nM GFP-4E-BP1; for inhibition at 1 µM: 1 uM compound, read-out: mTOR % Inhib@1 uM
T2 construct: purchased Invitrogen
Method in brief: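 Recombinant human mTOR with GFP-4E-BP1 substrate at 400 nM and 8 μM ATP, 1 h at room temperature, then quenched with 10 mM EDTA plus 2 nM Tb-anti-p4E-BP1 (pThr46) for 1 h. TR-FRET 520/486 nm ratio fitted against inhibitor concentration by four-parameter sigmoidal regression.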

T2 sequence (P42345 1360-2549 limits assumed): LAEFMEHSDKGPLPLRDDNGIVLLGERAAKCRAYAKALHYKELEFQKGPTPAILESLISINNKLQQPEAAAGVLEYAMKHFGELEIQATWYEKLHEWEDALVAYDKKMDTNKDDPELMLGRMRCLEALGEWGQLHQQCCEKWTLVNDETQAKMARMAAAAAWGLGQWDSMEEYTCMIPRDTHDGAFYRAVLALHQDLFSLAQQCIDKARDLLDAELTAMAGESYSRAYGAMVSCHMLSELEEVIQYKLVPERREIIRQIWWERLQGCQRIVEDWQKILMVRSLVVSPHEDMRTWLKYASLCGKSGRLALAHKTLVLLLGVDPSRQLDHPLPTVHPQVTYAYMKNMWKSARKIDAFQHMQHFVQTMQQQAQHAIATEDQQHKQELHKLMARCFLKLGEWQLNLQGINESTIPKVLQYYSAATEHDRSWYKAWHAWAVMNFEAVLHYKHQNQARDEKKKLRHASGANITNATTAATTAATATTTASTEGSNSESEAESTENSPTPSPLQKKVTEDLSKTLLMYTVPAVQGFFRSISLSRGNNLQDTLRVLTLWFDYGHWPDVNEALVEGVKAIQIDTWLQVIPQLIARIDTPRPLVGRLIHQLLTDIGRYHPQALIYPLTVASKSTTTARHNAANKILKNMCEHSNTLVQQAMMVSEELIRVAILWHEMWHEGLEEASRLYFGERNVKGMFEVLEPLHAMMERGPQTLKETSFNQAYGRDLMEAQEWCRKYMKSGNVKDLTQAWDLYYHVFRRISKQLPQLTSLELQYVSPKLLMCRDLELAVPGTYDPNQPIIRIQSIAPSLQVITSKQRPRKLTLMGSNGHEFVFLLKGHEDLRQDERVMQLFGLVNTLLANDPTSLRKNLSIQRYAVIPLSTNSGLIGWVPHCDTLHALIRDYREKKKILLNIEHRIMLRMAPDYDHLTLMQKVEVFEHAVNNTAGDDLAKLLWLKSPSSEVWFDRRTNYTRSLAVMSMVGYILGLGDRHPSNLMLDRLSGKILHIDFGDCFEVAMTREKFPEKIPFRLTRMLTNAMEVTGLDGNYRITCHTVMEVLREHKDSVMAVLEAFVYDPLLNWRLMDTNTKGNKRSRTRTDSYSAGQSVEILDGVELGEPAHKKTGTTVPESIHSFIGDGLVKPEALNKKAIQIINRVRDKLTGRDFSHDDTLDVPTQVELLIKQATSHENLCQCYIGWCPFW
T1 sequence (P42336 whole entry): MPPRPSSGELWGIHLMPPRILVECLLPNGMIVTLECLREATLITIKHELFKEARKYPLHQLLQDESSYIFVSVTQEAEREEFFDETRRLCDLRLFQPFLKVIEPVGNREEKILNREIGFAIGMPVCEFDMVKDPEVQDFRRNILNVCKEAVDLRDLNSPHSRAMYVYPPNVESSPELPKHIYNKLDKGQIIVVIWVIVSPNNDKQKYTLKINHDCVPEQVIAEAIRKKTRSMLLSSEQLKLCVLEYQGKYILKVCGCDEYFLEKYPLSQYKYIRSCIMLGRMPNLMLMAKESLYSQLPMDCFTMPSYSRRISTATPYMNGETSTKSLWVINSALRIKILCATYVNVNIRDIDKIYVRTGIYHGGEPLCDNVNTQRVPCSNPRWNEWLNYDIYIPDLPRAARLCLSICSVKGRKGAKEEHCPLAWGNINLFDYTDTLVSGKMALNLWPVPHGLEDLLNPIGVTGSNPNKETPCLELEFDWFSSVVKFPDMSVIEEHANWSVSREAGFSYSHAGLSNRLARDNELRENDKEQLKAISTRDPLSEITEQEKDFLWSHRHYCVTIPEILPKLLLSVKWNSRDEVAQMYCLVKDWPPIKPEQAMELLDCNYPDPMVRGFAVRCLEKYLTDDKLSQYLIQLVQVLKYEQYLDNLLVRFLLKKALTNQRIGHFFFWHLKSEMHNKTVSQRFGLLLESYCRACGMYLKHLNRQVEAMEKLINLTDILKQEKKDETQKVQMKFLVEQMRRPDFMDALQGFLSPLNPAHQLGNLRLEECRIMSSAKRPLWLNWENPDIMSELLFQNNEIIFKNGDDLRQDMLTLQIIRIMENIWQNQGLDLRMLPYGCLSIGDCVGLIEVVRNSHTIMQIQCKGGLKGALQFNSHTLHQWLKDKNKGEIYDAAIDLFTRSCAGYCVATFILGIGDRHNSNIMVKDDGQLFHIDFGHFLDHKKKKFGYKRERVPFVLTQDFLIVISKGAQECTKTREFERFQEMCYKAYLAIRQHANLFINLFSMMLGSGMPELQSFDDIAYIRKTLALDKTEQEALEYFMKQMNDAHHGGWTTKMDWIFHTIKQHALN
T1 sequence (P27986 whole entry partner): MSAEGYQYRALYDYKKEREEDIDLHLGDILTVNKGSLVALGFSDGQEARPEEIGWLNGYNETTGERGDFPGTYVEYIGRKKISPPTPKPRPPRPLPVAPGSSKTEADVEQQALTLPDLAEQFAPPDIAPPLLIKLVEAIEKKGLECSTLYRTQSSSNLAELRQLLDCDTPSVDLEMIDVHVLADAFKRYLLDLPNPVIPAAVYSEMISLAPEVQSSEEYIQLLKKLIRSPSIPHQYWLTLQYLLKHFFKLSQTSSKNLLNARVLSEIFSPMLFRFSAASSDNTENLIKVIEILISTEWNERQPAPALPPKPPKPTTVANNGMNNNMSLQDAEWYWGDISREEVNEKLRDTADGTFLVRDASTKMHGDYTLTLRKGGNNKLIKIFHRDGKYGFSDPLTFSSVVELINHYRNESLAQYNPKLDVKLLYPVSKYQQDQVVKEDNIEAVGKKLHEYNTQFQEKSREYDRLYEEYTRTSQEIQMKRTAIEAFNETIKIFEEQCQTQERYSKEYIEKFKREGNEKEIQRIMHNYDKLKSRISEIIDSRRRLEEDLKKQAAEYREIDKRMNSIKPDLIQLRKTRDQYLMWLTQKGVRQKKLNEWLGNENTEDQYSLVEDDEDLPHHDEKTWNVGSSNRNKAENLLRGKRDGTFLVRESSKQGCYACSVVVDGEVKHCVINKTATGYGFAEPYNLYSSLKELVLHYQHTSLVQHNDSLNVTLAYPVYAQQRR

C[C@H]1OCCN(c2nc(Oc3ccc(C(=O)N(C)C)cc3F)nc(-c3cnc(N)s3)n2)[C@H]1C [Compound 10052, 4-((4-(2-Aminothiazol-5-yl)-6-((2R,3S)-2,3-dimethylmorpholino)-1,3,5-triazin-2-yl)oxy)-3-fluoro-N,N-dimethylbenzamide]
inhibition at 1 µM [1]: > 50% | IC50 [1]: < 1000 nM | IC50 (Recombinant mTOR (FRAP1)): < 1000 nM

C[C@@H]1COCCN1c1nc(Oc2ccc(C(=O)N(C)C)cc2F)nc(-c2cnc(N)s2)n1 [Compound 10156, 4-(4-(2-aminothiazol-5-yl)-6-((R)-3-methylmorpholino)-1,3,5-triazin-2-yloxy)-3-fluoro-N,N-dimethylbenzamide]
inhibition at 1 µM [1]: < 50% | IC50 [1]: 3000 nM | IC50 (Recombinant mTOR (FRAP1)): < 1000 nM

C[C@H]1CN(c2nc(Oc3ccc(C(=O)N(C)C)cc3F)nc(-c3ccc4[nH]ncc4c3)n2)[C@@H](C)CO1 [Compound 10063, 4-((4-((25,3S)-2,5-dimethylmorpholino)-6-(1H-indazol-5-yl)-1,3,5-triazin-2-yl)oxy)-3-fluoro-N,N-dimethylbenzamide]
inhibition at 1 µM [1]: < 50% | IC50 (Recombinant mTOR (FRAP1)): < 1000 nM

CN(C)C(=O)Cc1ccc(Oc2nc(-c3cnc(N)nc3)nc(N3CCOCC3)n2)cc1 [Compound 10189, 2-(4-((4-(2-aminopyrimidin-5-yl)-6-morpholino-1,3,5-triazin-2-yl)oxy)phenyl)-N,N-dimethylacetamide]
IC50 [1]: < 1000 nM | inhibition at 1 µM (Recombinant mTOR (FRAP1)): < 50%

CN(C)C(=O)c1ccc(Nc2nc(-c3cnc(N)s3)nc(N3CCOCC3)n2)cc1 [Compound 10196, 4-((4-(2-aminothiazol-5-yl)-6-morpholino-1,3,5-triazin-2-yl)amino)-N,N-dimethylbenzamide]
IC50 [1]: < 1000 nM | inhibition at 1 µM (Recombinant mTOR (FRAP1)): < 50%

C[C@H]1COCCN1c1nc(Oc2ccc(C(=O)N(C)C)cc2)nc(-c2cnc(NC(=O)Nc3cccnc3)s2)n1 [Compound 10092]
inhibition at 1 µM [1]: < 50% | IC50 [1]: < 1000 nM | IC50 (Recombinant mTOR (FRAP1)): < 1000 nM

CN(C)C(=O)Cc1ccc(Oc2nc(-c3ccc(N)nc3)nc(N3CCOCC3)n2)cc1 [Compound 10180, 2-(4-((4-(6-aminopyridin-3-yl)-6-morpholino-1,3,5-triazin-2-yl)oxy)phenyl)-N,N-dimethylacetamide]
IC50 [1]: < 1000 nM | inhibition at 1 µM (Recombinant mTOR (FRAP1)): > 50% | IC50 (Recombinant mTOR (FRAP1)): < 1000 nM

CN(C)C(=O)c1ccc(Oc2nc(-c3cnc(N)cc3C(F)(F)F)nc(N3CCOCC3)n2)cc1 [Compound 10015, 4-(4-(6-amino-4-(trifluoromethyl)pyridin-3-yl)-6-morpholino-1,3,5-triazin-2-yloxy)-N,N-dimethylbenzamide]
IC50 [1]: < 1000 nM | inhibition at 1 µM (Recombinant mTOR (FRAP1)): > 50% | IC50 (Recombinant mTOR (FRAP1)): < 1000 nM

C[C@@H]1CN(c2nc(Oc3ccc(C(=O)N(C)C)cc3F)nc(-c3ccc(N)nc3)n2)[C@@H](C)CO1 [Compound 10098, 4-((4-(6-Aminopyridin-3-yl)-6-((2R,5S)-2,5-dimethylmorpholino)-1,3,5-triazin-2-yl)oxy)-3-fluoro-N,N-dimethylbenzamide]
inhibition at 1 µM [1]: > 50% | IC50 [1]: < 1000 nM | IC50 (Recombinant mTOR (FRAP1)): < 1000 nM

C[C@H]1COCCN1c1nc(O[C@H]2CC[C@H](C(=O)N(C)C)CC2)nc(-c2ccc(CO)cc2)n1 [Compound 10203, (1S,4r)-4-((4-(4-(hydroxymethyl)phenyl)-6-((S)-3-methylmorpholino)-1,3,5-triazin-2-yl)oxy)-N,N-dimethylcyclohexane-1-carboxamide]
inhibition at 1 µM [1]: < 50% | IC50 (Recombinant mTOR (FRAP1)): > 3000 nM

C[C@H]1COCCN1c1nc(O[C@H]2CC[C@H](C(=O)N(C)C)CC2)nc(-c2cnc(N)s2)n1 [Compound 10139, (1S,4r)-4-(4-(2-aminothiazol-5-yl)-6-((S)-3-methylmorpholino)-1,3,5-triazin-2-yloxy)-N,N-dimethylcyclohexanecarboxamide]
IC50 [1]: < 1000 nM | inhibition at 1 µM (Recombinant mTOR (FRAP1)): > 50% | IC50 (Recombinant mTOR (FRAP1)): < 1000 nM

CN(C)C(=O)c1ccc(Oc2nc(-c3ccc(N)nc3)nc(N3CCCOCC3)n2)cc1 [Compound 10178, 4-((4-(6-aminopyridin-3-yl)-6-(1,4-oxazepan-4-yl)-1,3,5-triazin-2-yl)oxy)-N,N-dimethylbenzamide]
IC50 [1]: < 1000 nM | inhibition at 1 µM (Recombinant mTOR (FRAP1)): < 50%

Cc1cc(Oc2nc(-c3ccc(N)nc3)nc(N3CCOCC3)n2)ccc1C(=O)N(C)C [Compound 10181, 4-((4-(6-aminopyridin-3-yl)-6-morpholino-1,3,5-triazin-2-yl)oxy)-N,N,2-trimethylbenzamide]
IC50 [1]: < 1000 nM | inhibition at 1 µM (Recombinant mTOR (FRAP1)): > 50% | IC50 (Recombinant mTOR (FRAP1)): < 1000 nM

CN(C)C(=O)c1ccc(Oc2nc(-c3ccc(N)nc3)nc(N3CC4CCC(C3)O4)n2)c(F)c1 [Compound 10095]
inhibition at 1 µM [1]: < 50% | IC50 [1]: > 1000 nM | IC50 (Recombinant mTOR (FRAP1)): < 1000 nM

CN(C)C(=O)c1ccc(Oc2nc(-c3cnc(N)s3)nc(N3CCNC(=O)CC3)n2)cc1 [Compound 10071, 4-((4-(2-Aminothiazol-5-yl)-6-(5-oxo-1,4-diazepan-1-yl)-1,3,5-triazin-2-yl)oxy)-N,N-dimethylbenzamide]
inhibition at 1 µM [1]: < 50% | inhibition at 1 µM (Recombinant mTOR (FRAP1)): < 50%

CN(C)C(=O)c1ccc(Oc2nc(-c3cnc(N)[nH]3)nc(N3CCOCC3)n2)cc1 [Compound 10124, 4-(4-(2-amino-1H-imidazol-5-yl)-6-morpholino-1,3,5-triazin-2-yloxy)-N,N-dimethylbenzamide]
inhibition at 1 µM [1]: < 50% | inhibition at 1 µM (Recombinant mTOR (FRAP1)): < 50%

C[C@H]1COCCN1c1nc(O[C@H]2CC[C@H](C(=O)N(C)C)CC2)nc(-c2ccc3[nH]ncc3c2)n1 [Compound 10202, (1S,4r)-4-((4-(1H-indazol-5-yl)-6-((S)-3-methylmorpholino)-1,3,5-triazin-2-yl)oxy)-N,N-dimethylcyclohexane-1-carboxamide]
IC50 [1]: > 10000 nM | IC50 (Recombinant mTOR (FRAP1)): > 1000 nM

CN(C)C(=O)c1ccc(Oc2nc(-c3cnc(N)s3)nc(N3CCOCC3)n2)c(F)c1 [Compound 10022, 4-(4-(2-aminothiazol-5-yl)-6-morpholino-1,3,5-triazin-2-yloxy)-3-fluoro-N,N-dimethylbenzamide]
IC50 [1]: < 1000 nM | inhibition at 1 µM (Recombinant mTOR (FRAP1)): > 50% | IC50 (Recombinant mTOR (FRAP1)): < 1000 nM

C[C@H]1COCCN1c1nc(Oc2ccc(C(=O)N(C)C)cc2)nc(C2=CC=C(N)N(O)C2)n1 [Compound 10125]
inhibition at 1 µM [1]: < 50% | inhibition at 1 µM (Recombinant mTOR (FRAP1)): < 50%

CN(C)C(=O)c1ccc(Oc2nc(-c3cnc(N)s3)nc(N3C[C@H]4C[C@@H](C3)O4)n2)cc1 [Compound 10046, 4-(4-(2-aminothiazol-5-yl)-6-((1R,5S)-6-oxa-3-azabicyclo[3.1.1]heptan-3-yl)-1,3,5-triazin-2-yloxy)-N,N-dimethylbenzamide]
inhibition at 1 µM [1]: < 50% | inhibition at 1 µM (Recombinant mTOR (FRAP1)): < 50%

CN(C)C(=O)NC1CCN(c2nc(-c3ccc(N)nc3)nc(N3CCOCC3)n2)CC1 [Compound 10188, 3-(1-(4-(6-aminopyridin-3-yl)-6-morpholino-1,3,5-triazin-2-yl)piperidin-4-yl)-1,1-dimethylurea]
IC50 [1]: > 1000 nM | inhibition at 1 µM (Recombinant mTOR (FRAP1)): < 50%

C[C@H]1CN(c2nc(Oc3ccc(C(=O)N(C)C)cc3F)nc(-c3cnc4[nH]ccc4c3)n2)[C@@H](C)CO1 [Compound 10104, 4-((4-((2S,5S)-2,5-dimethylmorpholino)-6-(1H-pyrrolo[2,3-b]pyridine-5-yl)-1,3,5-triazin-2-yl)oxy)-3-fluoro-N,N-dimethylbenzamide]
IC50 [1]: < 1000 nM | IC50 (Recombinant mTOR (FRAP1)): < 1000 nM

C[C@H]1COCCN1c1nc(OC2CCN(C(=O)N(C)C)C2)nc(-c2cnc(N)s2)n1 (stereo partly drawn) [Compound 10138, 3-(4-(2-aminothiazol-5-yl)-6-((S)-3-methylmorpholino)-1,3,5-triazin-2-yloxy)-N,N-dimethylpyrrolidine-1-carboxamide]
inhibition at 1 µM [1]: > 50% | IC50 [1]: < 1000 nM | inhibition at 1 µM (Recombinant mTOR (FRAP1)): < 50% | IC50 (Recombinant mTOR (FRAP1)): > 1000 nM

C[C@H]1CN(c2nc(Oc3ccc(C(=O)N(C)C)cc3F)nc(-c3ccc(N)nc3)n2)[C@@H](C)CO1 [Compound 10097, 4-((4-(6-Aminopyridin-3-yl)-6-((2S,5S)-2,5-dimethylmorpholino)-1,3,5-triazin-2-yl)oxy)-3-fluoro-N,N-dimethylbenzamide]
inhibition at 1 µM [1]: > 50% | IC50 [1]: < 1000 nM | IC50 (Recombinant mTOR (FRAP1)): < 1000 nM

C[C@H]1COCCN1c1nc(Oc2ccc(C(=O)N(C)C)cc2)nc(-c2cnc(N(C)C)s2)n1 [Compound 10143, 4-(4-(2-(dimethylamino)thiazol-5-yl)-6-((S)-3-methylmorpholino)-1,3,5-triazin-2-yloxy)-N,N-dimethylbenzamide]
inhibition at 1 µM [1]: < 50% | IC50 [1]: > 1000 nM | IC50 (Recombinant mTOR (FRAP1)): > 1000 nM

C[C@H]1COC[C@H](C)N1c1nc(Oc2ccc(C(=O)N(C)C)cc2)nc(-c2cnc(N)s2)n1 [Compound 10078, 4-((4-(2-Aminothiazol-5-yl)-6-((3S,5S)-3,5-dimethylmorpholino)-1,3,5-triazin-2-yl)oxy)-N,N-dimethybenzamide]
inhibition at 1 µM [1]: > 50% | IC50 [1]: < 1000 nM | inhibition at 1 µM (Recombinant mTOR (FRAP1)): > 50% | IC50 (Recombinant mTOR (FRAP1)): < 1000 nM

C[C@H]1COCCN1c1nc(Oc2ccc(C(=O)N(C)C)cc2)nc(-c2cnc(N)cc2C(F)(F)F)n1 [Compound 10066, (S)-4-((4-(6-Amino-4-(trifluoromethyl)pyridine-3-yl)-6-(3-methylmorpholino)-1,3,5-triazin-2-yl)oxy)-N,N-dimethylbenzamide]
IC50 [1]: < 1000 nM | IC50 (Recombinant mTOR (FRAP1)): < 1000 nM

C[C@H]1COCCN1c1nc(Oc2ccc(C(=O)N(C)C)cc2F)nc(-c2ccc3[nH]ncc3c2)n1 [Compound 10051, (S)-4-((4-(1H-indazol-5-yl)-6-(3-methylmorpholino)-1,3,5-triazin-2-yl)oxy)-3-fluoro-N,N-dimethylbenzamide]
IC50 [1]: > 1000 nM | inhibition at 1 µM (Recombinant mTOR (FRAP1)): > 50% | IC50 (Recombinant mTOR (FRAP1)): < 1000 nM
